Experimental data reported in the NIST ThermoML archive (doi:10.1016/j.jct.2019.05.010).
Values joined by “and” are separate entries in the source; they are usually repeats but may differ in a detail not shown here. Equal values may be shown once.

Assays:
[1] = 101.33 kPa, Crystal, Vacuum adiabatic calorimetry
[2] = molar heat capacity at constant pressure; conditions: 101.33 kPa, Crystal, Vacuum adiabatic calorimetry

CC(=O)[CH-]C(C)=O.CC(=O)[CH-]C(C)=O.[Cu+2] [bis(2,4-pentanedionato-O,O')copper]
Conditions	molar entropy, [1] [J/K/mol]	molar heat capacity at constant pressure, [2]
5 K	0.229	0.667 J/K/mol
6.54 K	–	1.427 J/K/mol
9.03 K	–	3.433 J/K/mol
10 K	1.632	4.4 J/K/mol
11.38 K	–	6.016 J/K/mol
13.66 K	–	9.127 J/K/mol
15 K	4.62	11.23 J/K/mol
16.64 K	–	13.96 J/K/mol
20 K	9.07	20.52 J/K/mol and 20.5 J/K/mol
22.84 K	–	26.59 J/K/mol
25 K	14.79	31.33 J/K/mol
25.85 K	–	33.31 J/K/mol
29.17 K	–	40.64 J/K/mol
30 K	21.5	42.65 J/K/mol
32.85 K	–	49.04 J/K/mol
35 K	28.92	53.76 J/K/mol
36.85 K	–	57.9 J/K/mol
40 K	36.8	64.51 J/K/mol
40.6 K	–	65.62 J/K/mol
44.11 K	–	72.98 J/K/mol
45 K	44.99	74.72 J/K/mol
48.18 K	–	80.84 J/K/mol
50 K	53.37	84.29 J/K/mol
52.32 K	–	88.52 J/K/mol
55 K	61.8	93.1 J/K/mol
56.3 K	–	95.12 J/K/mol
60 K	70.3	101 J/K/mol
60.23 K	–	101.6 J/K/mol
64.13 K	–	107 J/K/mol
65 K	78.6	108.3 J/K/mol
68.13 K	–	112.6 J/K/mol
70 K	86.9	115.1 J/K/mol
72.3 K	–	118.2 J/K/mol
76.49 K	–	123.2 J/K/mol
80 K	103.1	127.4 J/K/mol
80.07 K	–	127.4 J/K/mol
80.38 K	–	128 J/K/mol
85.04 K	–	132.9 J/K/mol
89.68 K	–	137.8 J/K/mol
90 K	118.8	138.1 J/K/mol
94.05 K	–	142.1 J/K/mol
98.21 K	–	146 J/K/mol
100 K	133.8	147.6 J/K/mol
102.43 K	–	149.8 J/K/mol
106.73 K	–	153.5 J/K/mol
110 K	148.3	156.4 J/K/mol
110.87 K	–	157.3 J/K/mol
115.52 K	–	160.9 J/K/mol
120 K	162.3	164.5 J/K/mol
120.66 K	–	165 J/K/mol
125.63 K	–	169 J/K/mol
130 K	175.7	172.1 J/K/mol
130.45 K	–	172.4 J/K/mol
135.15 K	–	176 J/K/mol
139.73 K	–	179.1 J/K/mol
140 K	188.8	179.4 J/K/mol
144.22 K	–	182.5 J/K/mol
148.61 K	–	185.6 J/K/mol
150 K	201.4	186.6 J/K/mol
152.93 K	–	188.8 J/K/mol
157.17 K	–	191.5 J/K/mol
160 K	213.6	193.5 J/K/mol
161.35 K	–	194.4 J/K/mol
165.97 K	–	197.3 J/K/mol
170 K	225.6	199.8 J/K/mol
171.03 K	–	200.5 J/K/mol
176 K	–	203.5 J/K/mol
180 K	237.2	206.2 J/K/mol
180.9 K	–	206.9 J/K/mol
185.74 K	–	210.1 J/K/mol
190 K	248.5	213 J/K/mol
190.5 K	–	213.3 J/K/mol
195.21 K	–	216.6 J/K/mol
199.87 K	–	219.6 J/K/mol
200 K	259.6	219.6 J/K/mol
204.46 K	–	222.6 J/K/mol
209.01 K	–	225.1 J/K/mol
210 K	270.5	225.9 J/K/mol
213.51 K	–	228.2 J/K/mol
217.97 K	–	231.3 J/K/mol
220 K	281.1	232.5 J/K/mol
222.38 K	–	234.3 J/K/mol
226.74 K	–	236.8 J/K/mol
230 K	291.6	238.9 J/K/mol
231.06 K	–	239.5 J/K/mol
235.35 K	–	242.2 J/K/mol
239.58 K	–	245.1 J/K/mol
240 K	301.9	245.4 J/K/mol
243.77 K	–	247.8 J/K/mol
248.11 K	–	250.8 J/K/mol
250 K	312.1	252 J/K/mol
252.68 K	–	253.8 J/K/mol
257.27 K	–	256.6 J/K/mol
260 K	322.1	258.5 J/K/mol
261.9 K	–	259.8 J/K/mol
266.49 K	–	262.7 J/K/mol
270 K	331.9	265.2 J/K/mol
271.04 K	–	266.1 J/K/mol
275.54 K	–	268.5 J/K/mol
280 K	341.7	271.7 J/K/mol
280.45 K	–	272.3 J/K/mol
285.75 K	–	275.1 J/K/mol
290 K	351.4	278.3 J/K/mol
291 K	–	279 J/K/mol
296.16 K	–	282.5 J/K/mol
298.15 K	359.1	283.9 J/K/mol
300 K	360.9	285.2 J/K/mol
300.51 K	–	285.7 J/K/mol
304.76 K	–	288.6 J/K/mol
308.97 K	–	291.5 J/K/mol
310 K	370.4	292.4 J/K/mol
313 K	373.2	294.5 J/K/mol
313.16 K	–	294.6 J/K/mol
